This note sets out measurements from patent US9498420B2, “Cosmetic compositions and methods for inhibiting melanin synthesis” (The Procter & Gamble Company, priority 2013, dated 2016).

The structures appear in SMILES notation.

For this assay, the system named is B16-F1 mouse melanoma cells. In words: Melanin Synthesis Assay. The format is cell-based. On the procedure: A B16-F1 mouse melanoma cell line may be employed as an assay to measure melanin synthesis. The B16-F1 cells may be obtained from […], Virginia, USA. The cell culture medium that may be used in the assay may comprise 500 mL of Dulbecco's Modified Eagle's Medium (DMEM), 50 mL Fetal Bovine Serum (FBS), and 5 mL of penicillin-streptomycin liquid. B16-F1 cells that are cultured in this medium and grown to greater than 90% confluency synthesize melanin. While not intending to be bound by any theory, it is hypothesized that melanin synthesis is stimulated by the culture medium and/or stress induced by growth to a high confluency. The DMEM and FBS can be obtained from […] and the penicillin-streptomycin liquid can be obtained from Invitrogen, Inc., California, USA. Equipment used in the assay include a CO2 incubator, such as a Forma Series Model 3110 by Therma Scientific, Massachusetts, USA; a hemocytometer, such as a Bright Line model by Hauser Scientific, Pennsylvania, USA; and a UV-Visible Spectrum Plate Reader, such as a SpectraMax250 from Molecular Devices, California, USA. The assay steps may include: Day 0—Cell Growth: Warm the cell culture medium to 37° C. and place 29 mL into a T-150 flask. Add approximately 1×10^6 of B16-F1 passage 1 mouse cells to the T-150 flask and incubate for 3 days at 37° C., 5% CO2, 90% relative humidity, until ˜80% confluency; Day 3—Initiate a 96 Well Plate: At day 3, trypsinize the cells from the T-150 flask and determine the concentration of cells using a hemocytometer. Initiate a 96 well plate with 2,500 cells per well in 100 microliters of cell culture medium. […] Read the 96 well plate using the UV-Vis Plate Reader at 410 nm to optically measure the amount of melanin produced between wells that are treated with [test compound] and control wells that are not treated with a test compound. […] Percentage of melanin synthesis inhibition is calculated by the following equation: [formula] Where OD410 is the Optical Density at 410 nm as measured by the UV-Vis Spectrum Plate Reader. […]

With `CC(C)=CCC[C@](C)(O)[C@@H]1CC=C(C)CC1` [Sample 1, bisabolol], the “reduction in the production of melanin as compared to Sample 4 (HD/UP/Nia)” value (Table 1 concentrations, B16-F1 mouse melanoma cells, statistical comparison) was “did not significantly reduce”. As to `CCCCCCCCCCCCCCCCCCOCC(O)CO` (stereo not drawn) [Sample 8, batyl alcohol], for the setting “Table 2, B16-F1 cells, where present: 0.03% batyl alcohol, 0.003% bisabolol, 0.0005% hexyldecanol, 0.0001% undecylenoyl phenylalanine, 0.0005% niacinamide”, the “Average Melanin % Inhibition” value is reported as 7%. Further, where the note is “Table 2 concentrations, mouse melanoma cells, statistical comparison”, the “reduction in the production of melanin as compared to Sample 9 (HD/UP/Nia)” value is on record as “did not significantly reduce”.
